Results from PubChem BioAssay (NCI).
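Five compound concentrations were applied to cells in 96-well plates for 48 hours; endpoints were derived by simple linear interpolation of the resulting dose-response curve. TGI: concentration producing complete growth inhibition.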

Key:
Assay in all cases: DTP human tumour cell line panel, 48 h
SF-268 CNS = system: SF-268 CNS
NCI-H23 lung = system: NCI-H23 lung
HCC-2998 colon = system: HCC-2998 colon
786-0 renal = system: 786-0 renal
RPMI-8226 leukemia = system: RPMI-8226 leukemia
BT-549 breast = system: BT-549 breast
SK-MEL-2 melanoma = system: SK-MEL-2 melanoma
SNB-19 CNS = system: SNB-19 CNS
MALME-3M melanoma = system: MALME-3M melanoma
NCI-H522 lung = system: NCI-H522 lung
NCI-H226 lung = system: NCI-H226 lung
UACC-257 melanoma = system: UACC-257 melanoma
SF-539 CNS = system: SF-539 CNS
RXF 393 renal = system: RXF 393 renal
COLO 205 colon = system: COLO 205 colon
MCF7 breast = system: MCF7 breast
SK-OV-3 ovarian = system: SK-OV-3 ovarian
HOP-92 NSCLC = system: HOP-92 NSCLC
MDA-MB-231 breast = system: MDA-MB-231 breast
SW-620 colon = system: SW-620 colon

## CCOC(=O)c1sc2nc(SC)nc(Nc3ccc4c(c3)OCCCO4)c2c1N
SF-268 CNS
  TGI: > 100 µM
NCI-H23 lung
  TGI: > 100 µM
HCC-2998 colon
  TGI: > 100 µM
786-0 renal
  TGI: > 100 µM
RPMI-8226 leukemia
  TGI: > 100 µM
BT-549 breast
  TGI: > 100 µM
SK-MEL-2 melanoma
  TGI: > 100 µM
SNB-19 CNS
  TGI: > 100 µM
MALME-3M melanoma
  TGI: 80.7 µM
NCI-H522 lung
  TGI: 37.2 µM
NCI-H226 lung
  TGI: > 100 µM
UACC-257 melanoma
  TGI: > 100 µM
SF-539 CNS
  TGI: > 100 µM
RXF 393 renal
  TGI: 41.7 µM
COLO 205 colon
  TGI: > 100 µM
MCF7 breast
  TGI: > 100 µM
SK-OV-3 ovarian
  TGI: > 100 µM
HOP-92 NSCLC
  TGI: > 100 µM
MDA-MB-231 breast
  TGI: > 100 µM
SW-620 colon
  TGI: > 100 µM
